The target in this test is Keap1-Maltose Binding Protein (MBP tag) (Homo sapiens, UniProt Q14145). The test can be described thus: Nrf2-Keap1 HTRF (TR-FRET) binding assay: displacement of biotinylated ETGE peptide from Keap1-MBP. A general note: In TR-FRET formats the signal depends on donor and acceptor labels being close together.
The mark [1] stands for this setting: HTRF (TR-FRET), displacement of ETGE-biotin from Keap1-MBP, values banded into grades, read-out: Binding (IC50) ETGE-Keap1.

Read-outs that look alike come from different tables or passages of the source.

Sequence of Keap1-Maltose Binding Protein (MBP tag) (Q14145 whole entry): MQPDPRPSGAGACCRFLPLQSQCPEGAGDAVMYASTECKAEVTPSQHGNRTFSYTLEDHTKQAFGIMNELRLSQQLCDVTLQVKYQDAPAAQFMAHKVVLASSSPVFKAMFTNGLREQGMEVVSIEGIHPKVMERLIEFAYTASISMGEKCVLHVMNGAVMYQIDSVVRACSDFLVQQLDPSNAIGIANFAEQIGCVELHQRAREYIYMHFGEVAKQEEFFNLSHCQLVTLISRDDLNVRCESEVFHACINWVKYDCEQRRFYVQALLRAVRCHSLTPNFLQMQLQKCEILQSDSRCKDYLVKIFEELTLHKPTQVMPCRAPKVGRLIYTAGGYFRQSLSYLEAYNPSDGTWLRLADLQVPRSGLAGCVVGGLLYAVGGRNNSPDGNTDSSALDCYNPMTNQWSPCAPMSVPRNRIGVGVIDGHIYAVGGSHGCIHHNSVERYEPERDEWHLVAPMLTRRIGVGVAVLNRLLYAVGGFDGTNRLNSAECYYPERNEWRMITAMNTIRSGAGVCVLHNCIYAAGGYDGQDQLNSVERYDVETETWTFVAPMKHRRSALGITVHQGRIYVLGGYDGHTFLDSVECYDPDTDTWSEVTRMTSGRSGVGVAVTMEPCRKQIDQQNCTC

In the case of `CCCCCCCCCCCCCCCCCC(=O)N[C@H]1C[C@H]2C(=O)N[C@@H](CCC(N)=O)C(=O)N[C@H]3CSCc4cccc(c4)CSC[C@H](NC(=O)[C@H](CCC(=O)O)NC(=O)CNC(=O)[C@H]([C@@H](C)O)NC(=O)[C@H](CCC(=O)O)NC(=O)[C@@H]4CSCN4C(=O)[C@H](CC(=O)O)NC3=O)C(=O)N[C@@H](CC(C)C)C(=O)N3CCC[C@@H]3C(=O)N2C1` [Example 96, {[&^1Pro((4S)-NH-Stearyl)-Gln-Cys(&^2)-Asp-Thz-Glu-Thr-Gly-Glu-Cys(&^3)-Leu-D-Pro&^1][&^2(1,3-phenylenediyl)dimethylene&^3]}], the IC50 under setting [1] is less than 1 nM. On the same count and under the same terms, with `CCCCCCCCCCCCCCCCCC(=O)N[C@H]1C[C@H]2C(=O)N[C@@H](CCC(N)=O)C(=O)N[C@H]3CSCC4(COC4)CSC[C@H](NC(=O)[C@H](CCC(=O)O)NC(=O)CNC(=O)[C@H]([C@@H](C)O)NC(=O)[C@H](CCC(=O)O)NC(=O)[C@@H]4CSCN4C(=O)[C@H](CC(=O)O)NC3=O)C(=O)N[C@@H](CC(C)C)C(=O)N3CCC[C@@H]3C(=O)N2C1` [Example 97, {[&^1Pro((4S)-NH-Stearyl)-Gln-Cys(&^2)-Asp-Thz-Glu-Thr-Gly-Glu-Cys(&^3)-Leu-D-Pro&^1][&^2(3,3-oxetanediyl)dimethylene&^3]}] the figure was less than 1 nM.

In turn, `CCCCCCCCCCCCCCCCCCC(=O)N[C@H]1C[C@H]2C(=O)N[C@@H](CCC(N)=O)C(=O)N[C@H]3CSCc4ccccc4CSC[C@H](NC(=O)[C@H](CCC(=O)O)NC(=O)CNC(=O)[C@H]([C@@H](C)O)NC(=O)[C@H](CCC(=O)O)NC(=O)[C@@H]4CCCN4C(=O)[C@H](CC(=O)O)NC3=O)C(=O)N[C@@H](CC(C)C)C(=O)N3CCC[C@@H]3C(=O)N2C1` [Example 98, {[&^1Pro((4S)-NH-Nonadecanoyl)-Gln-Cys(&^2)-Asp-Pro-Glu-Thr-Gly-Glu-Cys(&^3)-Leu-D-Pro&^1][&^2(1,2-phenylenediyl)dimethylene&^3]}] yielded an IC50 of less than 1 nM. Regarding `CCCCCCCCCCCCCCCCCC(=O)NCCC(=O)N[C@@H](CC(C)C)C(=O)N[C@@H](CC(C)C)C(=O)N[C@H]1CSCC2(COC2)CSC[C@@H](C(=O)N[C@@H](CC(C)C)C(=O)N[C@@H](CC(C)C)C(N)=O)NC(=O)[C@H](CCC(=O)O)NC(=O)CNC(=O)[C@H]([C@@H](C)O)NC(=O)[C@H](CCC(=O)O)NC(=O)[C@@H]2CCCN2C(=O)[C@H](CC(=O)O)NC1=O` [Example 99, {[Stearyl-βAla-Leu-Leu-Cys(&^1)-Asp-Pro-Glu-Thr-Gly-Glu-Cys(&^2)-Leu-Leu-NH2][&^1(3,3-oxetanediyl)dimethylene&^2]}], the IC50 under setting [1] is less than 1 nM.

In turn, `CCCCCCCCCCCCCCCCCC(=O)N[C@H]1C[C@H]2C(=O)N[C@@H](CCC(N)=O)C(=O)N[C@H]3CSCC4(CCOCC4)CSC[C@H](NC(=O)[C@H](CCC(=O)O)NC(=O)CNC(=O)[C@H]([C@@H](C)O)NC(=O)[C@H](CCC(=O)O)NC(=O)[C@@H]4CCCN4C(=O)[C@H](CC(=O)O)NC3=O)C(=O)N[C@@H](CC(C)C)C(=O)N3CCC[C@@H]3C(=O)N2C1` [Example 100, {[&^1Pro((4S)-NH-Stearyl)-Gln-Cys(&^2)-Asp-Pro-Glu-Thr-Gly-Glu-Cys(&^3)-Leu-D-Pro&^1][&^2(tetrahydro-2H-pyran-4,4-diyl)dimethylene&^3]}] yielded an IC50 of 1 to 100 nM.

For orientation: IC50 means the midpoint of a concentration-inhibition curve.

The values are drawn from patent US20200255478A1, “NOVEL COMPOUNDS ACTIVATING THE NRF2 PATHWAY” (Almirall, S.A., priority 2017, published 2020).
